Among the data in ChEMBL document CHEMBL1125188, “Synthesis and evaluation of stilbene and dihydrostilbene derivatives as potential anticancer agents that inhibit tubulin polymerization” (J Med Chem, 1991) are EC50 and IC50 values, retold here.

pEC50: −log10 of the molar value.

The test system of assay [1] is HT-29. Briefly: Cytotoxic concentration required to inhibit 50% cell growth in HT-29 colon adenocarcinoma cell lines. The assay is classed as functional. Particulars: Homo sapiens, read-out: ED50 (the source's name).
Assay [2] concerns MLM. Briefly: Cytotoxic concentration required to inhibit 50% cell growth in MLM melanoma cell lines. The assay is classed as functional. Particulars: Homo sapiens, read-out: ED50 (the source's name).
The subject of assay [3] is MCF7. Briefly: Cytotoxic concentration required to inhibit 50% cell growth in MCF-7 breast carcinoma cell lines. In kind it is functional. Particulars: Homo sapiens, read-out: ED50 (the source's name).
Assay [4] relates to SK-MEL-5. Briefly: Cytotoxic concentration required to inhibit 50% cell growth in SKMEL-5 melanoma cell lines. In kind it is functional. Particulars: Homo sapiens, read-out: ED50 (the source's name).
The subject of assay [5] is A549. Briefly: Cytotoxic concentration required to inhibit 50% cell growth in A-549 lung carcinoma cell lines. In kind it is functional. Particulars: Homo sapiens, read-out: ED50 (the source's name).
The target in assay [6] is Tubulin (Bos taurus, UniProt Q6B856+Q862L2+Q862F3). Briefly: Ability to inhibit Tubulin polymerization in Bovine brain. In kind it is functional, tissue-based.

Take `COc1cc(/C=C\c2ccncc2)cc(OC)c1OC`: the pEC50 in assay [1] is 4.89; in assay [2] it was less than 4.60; in assay [3] it was 4.77; in assay [4], 4.84; in assay [5], 4.85.
For `COc1cc(/C=C\c2cccnc2)cc(OC)c1OC`, the pEC50 was 5.01 in assay [1]; less than 4.60 in assay [2]; 4.83 in assay [3]; 5.22 in assay [4]; 4.86 in assay [5].
In the case of `COc1cc(/C=C/c2cccnc2)cc(OC)c1OC`, the pEC50 in assay [1], in assay [2], in assay [3], in assay [4] and in assay [5] was less than 4.60 throughout.
For the molecule `COc1cc(CCc2ccc(NC(C)=O)cc2)cc(OC)c1OC`, the pEC50 in assay [1], in assay [2], in assay [3], in assay [4] and in assay [5] was less than 4.60 throughout.
For the molecule `COc1cc(/C=C/c2ccc(OC)c(OC)c2OC)cc(OC)c1OC`, the pEC50 in assay [1] is 4.99; in assay [2], 4.62; in assay [3], 4.83; in assay [4], 4.97; in assay [5] it was 4.90.
`COc1ccccc1/C=C\c1cc(OC)c(OC)c(OC)c1`: the pEC50 was 6.06 in assay [1]; 5.07 in assay [2]; 5.89 in assay [3]; 5.92 in assay [4]; 5.96 in assay [5].
`COc1cc(CCc2ccc(O)cc2)cc(OC)c1OC`: the pEC50 in assay [1], in assay [2], in assay [3], in assay [4] and in assay [5] was less than 4.60 throughout.
Consider `COc1cc(OC)c(/C=C/c2ccccc2)c(OC)c1`, for which the pEC50 in assay [1], in assay [2], in assay [3], in assay [4] and in assay [5] was less than 4.60 throughout.
`COc1cc(OC)c(OC)cc1CCc1cc(OC)c(OC)c(OC)c1`: the pEC50 in assay [1], in assay [2], in assay [3], in assay [4] and in assay [5] was less than 4.60 throughout.
In the case of `COc1cc(CCc2ccc(OC(C)=O)cc2)cc(OC)c1OC`, the pEC50 is less than 4.60 in assay [1]; less than 4.60 in assay [2]; less than 4.60 in assay [3]; less than 4.60 in assay [4]; 4.72 in assay [5].
`COc1ccc(C(=O)Nc2cc(OC)c(OC)c(OC)c2)cc1`: the pEC50 in assay [1], in assay [2], in assay [3], in assay [4] and in assay [5] was less than 4.60 throughout.
On to `COc1cc(/C=C/c2ccc([N+](=O)[O-])cc2)cc(OC)c1OC`, for which the pEC50 in assay [1], in assay [2], in assay [3], in assay [4] and in assay [5] was less than 4.60 each time.
Regarding `COc1ccc(CNc2cc(OC)cc(OC)c2)cc1`, the pEC50 in assay [1], in assay [2], in assay [3], in assay [4] and in assay [5] was less than 4.60 each time.
Turning to `COc1cc(/C=C/c2ccccc2)cc(OC)c1OC`, the pEC50 in assay [1], in assay [2], in assay [3], in assay [4] and in assay [5] was less than 4.60 each time.
For `COc1ccc(/C=C/c2ccccc2)cc1OC`, the pEC50 in assay [1], in assay [2], in assay [3], in assay [4] and in assay [5] was less than 4.60 each time.
`COc1cc(/C=C/c2ccc(O[Si](C)(C)C(C)(C)C)cc2)cc(OC)c1OC`: the pEC50 in assay [1], in assay [2], in assay [3], in assay [4] and in assay [5] was less than 4.60 in each case.
For the molecule `COc1ccc(C(=O)Nc2cc(OC)cc(OC)c2)cc1`, the pEC50 in assay [1], in assay [2], in assay [3], in assay [4] and in assay [5] was less than 4.60 throughout.
On to `COc1cc(NC(=O)c2cc(OC)c(OC)c(OC)c2)cc(OC)c1OC`, for which the pEC50 in assay [1], in assay [2], in assay [3], in assay [4] and in assay [5] was less than 4.60 each time.
Consider `COc1cc(/C=C/c2cc(OC)c(OC)c(OC)c2)cc(OC)c1`, for which the pEC50 in assay [1], in assay [2], in assay [3], in assay [4] and in assay [5] was less than 4.60 in each case.
Usually IC50 stands for the point on the concentration scale where inhibition reaches its midpoint. Higher therefore signals lower potency. `COc1ccc(/C=C\c2cc(OC)c(OC)c(OC)c2)cc1`: the pEC50 in assay [1] was 10.57; in assay [2], 10.03; in assay [5], 10.66. In assay [6], the concentration for half-maximal inhibition (IC50) came out at 2.2 µM.
On to `COc1cc(CCc2cccnc2)cc(OC)c1OC`, for which the pEC50 in assay [1] is less than 4.60; in assay [2], less than 4.60; in assay [3] it was less than 4.60; in assay [4], less than 4.60; in assay [5], 4.91.
Consider `COc1ccc(C(=O)Nc2cc(OC)c(OC)c(OC)c2)cc1OC`, for which the pEC50 in assay [1], in assay [2], in assay [3], in assay [4] and in assay [5] was less than 4.60 throughout.
Regarding `COc1ccc(/C=C/c2cc(OC)c(OC)c(OC)c2)c(Cl)c1`, the pEC50 in assay [1], in assay [2], in assay [3], in assay [4] and in assay [5] was less than 4.60 each time.
In the case of `COc1cc(CCc2cc(OC)c(OC)c(OC)c2)cc(OC)c1OC`, the pEC50 in assay [1], in assay [2], in assay [3], in assay [4] and in assay [5] was less than 4.60 each time.
For the molecule `COc1cc(CCc2ccc(OC)c(OC)c2OC)cc(OC)c1OC`, the pEC50 in assay [1], in assay [2], in assay [3], in assay [4] and in assay [5] was less than 4.60 each time.
Consider `COc1ccc(CNc2cc(OC)c(OC)c(OC)c2)cc1OC`, for which the pEC50 in assay [1], in assay [2], in assay [3], in assay [4] and in assay [5] was less than 4.60 in each case.
Turning to `COc1cccc(/C=C/c2cc(OC)c(OC)c(OC)c2)c1`, the pEC50 was 5.14 in assay [1]; less than 4.60 in assay [2]; 4.91 in assay [3]; 6.30 in assay [4]; 5.01 in assay [5].
Take `COc1cc(/C=C\c2ccc([N+](=O)[O-])cc2)cc(OC)c1OC`: the pEC50 in assay [1], in assay [2], in assay [3], in assay [4] and in assay [5] was less than 4.60 throughout.
As for `COc1cc(CCc2ccc(N)cc2)cc(OC)c1OC`, the pEC50 in assay [1] was 4.61; in assay [2] it was less than 4.60; in assay [3], 4.93; in assay [4], 4.90; in assay [5], 4.91.
`COc1cc(/C=C/c2cc(OC)c(OC)c(OC)c2)cc(OC)c1OC`: the pEC50 in assay [1], in assay [2], in assay [3], in assay [4] and in assay [5] was less than 4.60 throughout.
Consider `COc1cc(/C=C/c2ccc(OC(C)=O)cc2)cc(OC)c1OC`, for which the pEC50 was 5.27 in assay [1]; 4.89 in assay [2]; 5.02 in assay [3]; 5.34 in assay [4]; 5.01 in assay [5].
The matching figures for `COc1cc(CNc2cc(OC)c(OC)c(OC)c2)cc(OC)c1OC`: less than 4.60, less than 4.60, less than 4.60, less than 4.60 and less than 4.60.
As for `COc1cc(/C=C/c2ccc(N)cc2)cc(OC)c1OC`, the pEC50 in assay [1], in assay [2], in assay [3], in assay [4] and in assay [5] was less than 4.60 throughout.
For `COc1ccc(CCc2ccccc2)c(OC)c1OC`, the pEC50 in assay [1], in assay [2], in assay [3], in assay [4] and in assay [5] was less than 4.60 each time.
Regarding `COc1cc(/C=C/c2ccc(O)cc2)cc(OC)c1OC`, the pEC50 in assay [1] is less than 4.60; in assay [2] it was 4.62; in assay [3], 4.73; in assay [4], 4.94; in assay [5], less than 4.60.
Regarding `COc1ccc(NC(=O)c2cc(OC)c(OC)c(OC)c2)cc1`, the pEC50 was 4.64 in assay [1]; less than 4.60 in assay [2]; 4.91 in assay [3]; less than 4.60 in assay [4]; 4.85 in assay [5].
As for `COc1ccccc1/C=C/c1cc(OC)c(OC)c(OC)c1`, the pEC50 in assay [1] is 4.92; in assay [2], less than 4.60; in assay [3] it was 4.74; in assay [4], 4.87; in assay [5], 4.91.
For `COc1cc(/C=C/c2ccc(Br)cc2)cc(OC)c1OC`, the pEC50 in assay [1] was 4.90; in assay [2] it was 5.29; in assay [3], 5.04; in assay [4], 5.19; in assay [5], 5.19.
For the molecule `COc1cc(/C=C/c2ccc(OC)c(OC)c2)cc(OC)c1` [(E)-3,4,3',5'-TETRAMETHOXYSTILBENE], the pEC50 in assay [1], in assay [2], in assay [3], in assay [4] and in assay [5] was less than 4.60 each time.
For the molecule `COc1cccc2c1C(=O)c1c(O)c3c(c(O)c1C2=O)C[C@@](O)(C(=O)CO)C[C@@H]3O[C@H]1C[C@H](N)[C@H](O)[C@H](C)O1` [DOXORUBICIN], the pEC50 is 7.26 in assay [1]; 6.89 in assay [2]; 7.51 in assay [3]; 7.49 in assay [4]; 7.54 in assay [5].
